Tests used:
[1] = biological target: p38α MAP kinase (Homo sapiens, UniProt Q16539); assay: Phosphorylation of myelin basic protein (MBP) by p38α; type: biochemical
Procedure: The TTM2001.101.A09 bi-ligand compound and the fragments from which it was constructed were tested as inhibitors of p38α enzymatic activity in an assay measuring phosphorylation of myelin basic protein (MBP) by p38α.

[2] = biological target: unactivated p38α MAP kinase (Homo sapiens, UniProt Q16539); assay: WaterLOGSY NMR binding screen; conditions: 10 to 30 micromolar p38α, 0.1 to 1.0 millimolar compound, 4° C.
Chain of unactivated p38α MAP kinase (Q16539 whole entry): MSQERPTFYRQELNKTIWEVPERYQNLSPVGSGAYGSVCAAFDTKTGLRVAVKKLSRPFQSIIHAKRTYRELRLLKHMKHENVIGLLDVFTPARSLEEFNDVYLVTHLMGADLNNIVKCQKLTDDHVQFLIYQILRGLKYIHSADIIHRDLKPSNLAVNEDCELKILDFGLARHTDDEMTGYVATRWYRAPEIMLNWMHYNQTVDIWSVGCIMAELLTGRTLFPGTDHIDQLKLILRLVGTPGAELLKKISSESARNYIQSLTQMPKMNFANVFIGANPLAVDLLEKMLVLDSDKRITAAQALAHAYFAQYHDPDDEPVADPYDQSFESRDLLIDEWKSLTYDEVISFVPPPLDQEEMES
Source text: A library of 29 PBBA structure analogs was screened against unlabeled p38α MAP kinase (p38α) as follows. Samples containing 10 to 30 micromolar concentration of unactivated p38α MAP kinase and 0.1 to 1.0 millimolar concentration of one of the PBBA structure analogs were obtained. The samples were screened using WaterLOGSY with saturations times of 2 s (frequency selective excitation via a train of 232 6 ms π pulses with a GAUSS profile at an 80 Hz RF field strength) with solvent suspension using WATERGATE at 4° C. WaterLOGSY is further described in Dalvit et al. J. Biomol. NMR 21:349-59 (2001) Dalvit et al. J. Magn. Res. B112:282-288 (1996) and Dalvit et al., J. Biomol. NMR 11:437-444 (1998).
A number of PBBA related compounds were screened with WaterLOGSY to identify those that bound to p38α. Of the compounds shown in FIG. 6, two were identified by cross-saturation experiments (with 10 μM unactivated p38α, 1.5 s to 3.0 s saturation with a train of IBURP pulses) to interact with TTM2001.082.A10 as indicated by the arrows.

[3] = biological target: T1, p38α (Homo sapiens, UniProt Q16539); assay: Fluorescence polarization displacement of fluorescently tagged staurosporine; type: binding
T1 sequence (Q16539 whole entry): as above

[4] = biological target: activated p38α protein kinase (Homo sapiens, UniProt Q16539); assay: 1D saturation transfer difference with selective saturation of antenna methyl of TTM2002.143.A27; type: binding; conditions: 2 s saturation at 3.0 ppm, 4° C.
Chain of activated p38α protein kinase (Q16539 whole entry): as above
Source text: The 25 compounds from the MOTIF library described in Example IV were screened for proximal binding near the ligand-probe as follows. Samples were obtained containing 100 to 1000 micromolar concentrations of the TTM2002.143.A27 ligand-probe, 10 to 50 micromolar concentrations of activated p38α protein kinase, and one of the 25 compounds at a concentration of 100 to 1000 micromolar. Samples were screened for the presence of second ligands binding proximal to the common ligand-probe by (^1H) 1 dimensional saturation transfer difference experiments using saturations times of 2 s (frequency selective excitation via a train of 232 6 ms τ pulses with a GAUSS profile at an 80 Hz RF field strength) with solvent suspension using WATERGATE at 4° C.

[5] = biological target: T1, p38α; assay: 1D 1H NMR line broadening; type: binding; conditions: 50 micromolar compound, 10 μM p38α
Procedure: The ability of TTM2001.101.A09 to bind to p38α was determined by comparing the degree of line broadening in 1D ^1H NMR spectra for the compound in the presence of p38α compared to in the absence of p38α.

[6] = biological target: T1, p38α; assay: WaterLOGSY competition experiments (displacement of PBBA); type: binding
Source text: A peptide having the sequence […] (SEQ ID NO:1) is a known phosphorylation substrate for p38α as described, for example, in Chen et al. Biochemistry 39:2079-2087 (2000). […] This site is shown in the lower panel of FIG. 7, and is referred to as the SL (specificity ligand) site, since extending a bi-ligand library into this site off of an ATP mimic might provide additional specificity.

Chain of p38α MAP kinase (Q16539 whole entry, the tested form may be a part): as the sequence (Q16539 whole entry) above

In the case of `CCCCc1ccc(C(=O)O)cc1` [PBBA, p-butyl benzoic acid], the “inhibition of phosphorylation of MBP protein by p38α (in words)” value [1] is reported as “inhibit phosphorylation of MBP protein by p38α”, the “binding to p38α by WaterLOGSY cross-saturation” value [2] is reported as “showed cross-saturation effects with p38α indicating binding to the protein” and the “ability to displace fluorescently tagged staurosporine” value [3] is reported as “not able to displace a fluorescently tagged staurosporine”.
In the case of `CCCCCc1ccc(N)cc1` [PPA, p-pentyl-aniline], the “intensity change of aromatic protons on selective saturation of antenna methyl protons” value [4] is reported as “showed a reduction in the intensity on selective saturation of the methyl protons”.
With `O=C(O)c1ccc(CCCCCCSCc2cc(-n3cnc4cc(C(=O)O)ccc43)ccc2F)cc1` [TTM2001.101.A09] the “line broadening in 1D 1H NMR spectrum in presence of p38α” value [5] was “significant line-broadening”, the Kd ([1]; IC50 corrected for high ATP concentration, read-out: Kd for binding between p38α and compound) was roughly 300 nM and the IC50 ([1]; read-out: IC50, inhibition of myelin basic protein phosphorylation by p38α) was 1700 nM. The “fold tighter than either of the starting fragments” value ([1]; versus starting fragments PBBA and TTM2001.082.B09) was “greater than 100 fold”.
With “SEQ ID NO:1: peptide IPTTPITTTYFFFKKK, known phosphorylation substrate for p38α” the “ability to displace PBBA from p38α, WaterLOGSY competition” value [6] was “could not displace PBBA from p38α”.

Reference: patent US7653490B2, “Nuclear magnetic resonance assembly of chemical entities” (Triad Liquidating Company LLC, priority 2001, dated 2010)
